Measured values from the supplement of paper PMC4932681.
Structures can show the parent of a compound that is named as a salt.

What was measured:
BT-474 Tam1 [1] = assay: drug sensitivity score (DSS) (DSS (dimensionless)); higher = more sensitive; extreme values may be limits of the assay; details: 4-OH-tamoxifen in medium 1 µM; 72 h
Summary of the method: (§1)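 Breast cancer cell lines and their resistant derivatives were seeded into 384-well plates holding FO2Baq library drugs at five concentrations spanning a 10 000-fold range. Resistant lines were in medium with 1 μM of the selecting drug. Cells were incubated 72 h at 37 °C, and CellTiter-Glo viability was read on a PHERAstar and normalised to vehicle-only and positive controls. Drug sensitivity score, relative IC50 (curve midpoint) and top-dose inhibition came from logistic dose–response fits (Breeze pipeline).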

BT-474 Tam2 [2] = assay: as above; details: 4-OH-tamoxifen in medium 1 µM; 72 h
Summary of the method: as §1

BT-474 [3] = assay: as above; details: 72 h
Summary of the method: as §1

MCF-7 Tam1 [4] = assay: as above; details: 4-OH-tamoxifen in medium 1 µM; 72 h
Summary of the method: as §1

MCF-7 [5] = assay: as above; details: 72 h
Summary of the method: as §1

T-47D Tam1 [6] = assay: as above; details: 4-OH-tamoxifen in medium 1 µM; 72 h
Summary of the method: as §1

T-47D Tam2 [7] = assay: as above; details: 4-OH-tamoxifen in medium 1 µM; 72 h
Summary of the method: as §1

T-47D [8] = assay: as above; details: 72 h
Summary of the method: as §1

ZR-75-1 Tam1 [9] = assay: as above; details: 4-OH-tamoxifen in medium 1 µM; 72 h
Summary of the method: as §1

ZR-75-1 Tam2 [10] = assay: as above; details: 4-OH-tamoxifen in medium 1 µM; 72 h
Summary of the method: as §1

ZR-75-1 [11] = assay: as above; details: 72 h
Summary of the method: as §1

BT-474 Tam1 [12] = assay: relative IC50 (midpoint of fitted logistic curve, plateau may be below 50% inhibition; CellTiter-Glo viability); higher = less potent; details: 4-OH-tamoxifen in medium 1 µM; 72 h
Summary of the method: as §1

BT-474 Tam2 [13] = assay: as above; details: 4-OH-tamoxifen in medium 1 µM; 72 h
Summary of the method: as §1

BT-474 [14] = assay: as above; details: 72 h
Summary of the method: as §1

MCF-7 Tam1 [15] = assay: as above; details: 4-OH-tamoxifen in medium 1 µM; 72 h
Summary of the method: as §1

MCF-7 [16] = assay: as above; details: 72 h
Summary of the method: as §1

T-47D Tam1 [17] = assay: as above; details: 4-OH-tamoxifen in medium 1 µM; 72 h
Summary of the method: as §1

T-47D Tam2 [18] = assay: as above; details: 4-OH-tamoxifen in medium 1 µM; 72 h
Summary of the method: as §1

T-47D [19] = assay: as above; details: 72 h
Summary of the method: as §1

ZR-75-1 Tam1 [20] = assay: as above; details: 4-OH-tamoxifen in medium 1 µM; 72 h
Summary of the method: as §1

ZR-75-1 Tam2 [21] = assay: as above; details: 4-OH-tamoxifen in medium 1 µM; 72 h
Summary of the method: as §1

ZR-75-1 [22] = assay: as above; details: 72 h
Summary of the method: as §1

| relative IC50 (BT-474 Tam1 [12]) | relative IC50 (BT-474 Tam2 [13]) | relative IC50 (BT-474 [14]; 4-OH-tamoxifen in medium 0 µM) | relative IC50 (BT-474 [14]; 4-OH-tamoxifen in medium 1 µM) | relative IC50 (MCF-7 Tam1 [15]) | relative IC50 (MCF-7 [16]; 4-OH-tamoxifen in medium 0 µM) | relative IC50 (MCF-7 [16]; 4-OH-tamoxifen in medium 1 µM) | relative IC50 (T-47D Tam1 [17]) | relative IC50 (T-47D Tam2 [18]) | relative IC50 (T-47D [19]; 4-OH-tamoxifen in medium 0 µM) | relative IC50 (T-47D [19]; 4-OH-tamoxifen in medium 1 µM) | Structure (SMILES) | drug sensitivity score (BT-474 Tam1 [1]) | drug sensitivity score (BT-474 Tam2 [2]) | drug sensitivity score (BT-474 [3]; 4-OH-tamoxifen in medium 0 µM) | drug sensitivity score (BT-474 [3]; 4-OH-tamoxifen in medium 1 µM) | drug sensitivity score (MCF-7 Tam1 [4]) | drug sensitivity score (MCF-7 [5]; 4-OH-tamoxifen in medium 0 µM) | drug sensitivity score (MCF-7 [5]; 4-OH-tamoxifen in medium 1 µM) | drug sensitivity score (T-47D Tam1 [6]) | drug sensitivity score (T-47D Tam2 [7]) | drug sensitivity score (T-47D [8]; 4-OH-tamoxifen in medium 0 µM) | drug sensitivity score (T-47D [8]; 4-OH-tamoxifen in medium 1 µM) | drug sensitivity score (ZR-75-1 Tam1 [9]) | drug sensitivity score (ZR-75-1 Tam2 [10]) | drug sensitivity score (ZR-75-1 [11]; 4-OH-tamoxifen in medium 0 µM) | drug sensitivity score (ZR-75-1 [11]; 4-OH-tamoxifen in medium 1 µM) | relative IC50 (ZR-75-1 Tam1 [20]) | relative IC50 (ZR-75-1 Tam2 [21]) | relative IC50 (ZR-75-1 [22]; 4-OH-tamoxifen in medium 0 µM) | relative IC50 (ZR-75-1 [22]; 4-OH-tamoxifen in medium 1 µM) |
| --- | --- | --- | --- | --- | --- | --- | --- | --- | --- | --- | --- | --- | --- | --- | --- | --- | --- | --- | --- | --- | --- | --- | --- | --- | --- | --- | --- | --- | --- | --- |
| > 10 µM | > 10 µM | > 10 µM | > 10 µM | > 10 µM | > 10 µM |  | > 10 µM | > 10 µM | > 10 µM | > 10 µM | NCC(=O)CCC(=O)O [Aminolevulinic acid] | 0 | 0 | 0 | 0 | 0 | 0 | 0.809 | 0 | 0 | 0 | 0 | 0 | 0 | 0 | 0 | > 10 µM | > 10 µM | > 10 µM | > 10 µM |
| > 10 µM | > 10 µM | > 10 µM | > 10 µM | > 10 µM | > 10 µM | > 10 µM | > 10 µM | > 10 µM | > 10 µM | > 10 µM | O=C1CN2Cc3c(ccc(Cl)c3Cl)N=C2N1 [Anagrelide] | 0 | 0 | 0 | 0 | 0 | 0 | 0 | 0 | 0 | 0 | 0 | 0 | 0 | 0 | 0 | > 10 µM | > 10 µM | > 10 µM | > 10 µM |
| > 10 µM | > 10 µM | > 10 µM | > 10 µM | > 10 µM | > 10 µM | > 10 µM | > 10 µM | > 10 µM | > 10 µM | > 10 µM | CC(C)(C#N)c1cc(Cn2cncn2)cc(C(C)(C)C#N)c1 [Anastrozole] | 0 | 0 | 0 | 0 | 0 | 0 | 0 | 0 | 0 | 0 | 0 | 0 | 0 | 0 | 0 | > 10 µM | > 10 µM | > 10 µM | > 10 µM |

Second part, the compound before the results:

| Structure (SMILES) | relative IC50 (BT-474 Tam1 [12]) | relative IC50 (BT-474 Tam2 [13]) | relative IC50 (BT-474 [14]; 4-OH-tamoxifen in medium 0 µM) | relative IC50 (BT-474 [14]; 4-OH-tamoxifen in medium 1 µM) | relative IC50 (MCF-7 Tam1 [15]) | relative IC50 (MCF-7 [16]; 4-OH-tamoxifen in medium 0 µM) | relative IC50 (MCF-7 [16]; 4-OH-tamoxifen in medium 1 µM) | relative IC50 (T-47D Tam1 [17]) | relative IC50 (T-47D Tam2 [18]) | relative IC50 (T-47D [19]; 4-OH-tamoxifen in medium 0 µM) | relative IC50 (T-47D [19]; 4-OH-tamoxifen in medium 1 µM) | drug sensitivity score (BT-474 Tam1 [1]) | drug sensitivity score (BT-474 Tam2 [2]) | drug sensitivity score (BT-474 [3]; 4-OH-tamoxifen in medium 0 µM) | drug sensitivity score (BT-474 [3]; 4-OH-tamoxifen in medium 1 µM) | drug sensitivity score (MCF-7 Tam1 [4]) | drug sensitivity score (MCF-7 [5]; 4-OH-tamoxifen in medium 0 µM) | drug sensitivity score (MCF-7 [5]; 4-OH-tamoxifen in medium 1 µM) | drug sensitivity score (T-47D Tam1 [6]) | drug sensitivity score (T-47D Tam2 [7]) | drug sensitivity score (T-47D [8]; 4-OH-tamoxifen in medium 0 µM) | drug sensitivity score (T-47D [8]; 4-OH-tamoxifen in medium 1 µM) | drug sensitivity score (ZR-75-1 Tam1 [9]) | drug sensitivity score (ZR-75-1 Tam2 [10]) | drug sensitivity score (ZR-75-1 [11]; 4-OH-tamoxifen in medium 0 µM) | drug sensitivity score (ZR-75-1 [11]; 4-OH-tamoxifen in medium 1 µM) | relative IC50 (ZR-75-1 Tam1 [20]) | relative IC50 (ZR-75-1 Tam2 [21]) | relative IC50 (ZR-75-1 [22]; 4-OH-tamoxifen in medium 0 µM) | relative IC50 (ZR-75-1 [22]; 4-OH-tamoxifen in medium 1 µM) |
| --- | --- | --- | --- | --- | --- | --- | --- | --- | --- | --- | --- | --- | --- | --- | --- | --- | --- | --- | --- | --- | --- | --- | --- | --- | --- | --- | --- | --- | --- | --- |
| CO[C@H]1/C=C\C=C(/C)C(=O)NC2=CC(=O)C(NCCN(C)C)=C(C[C@@H](C)C[C@H](OC)[C@H](O)[C@@H](C)/C=C(\C)[C@@H]1OC(N)=O)C2=O [Alvespimycin (17-DMAG)] | 0.0153 µM | 0.0146 µM | 0.0131 µM | 0.00888 µM | 0.048 µM | 0.0225 µM | 0.03 µM | 0.424 µM | 0.196 µM | 0.259 µM | 0.142 µM | 16.9 | 17.6 | 12.2 | 19.4 | 4.36 | 12.6 | 8.71 | 1.14 | 3.87 | 3.17 | 3.41 | 3.49 | 5.93 | 3.36 | 6.21 | 0.095 µM | 0.071 µM | 0.0858 µM | 0.0752 µM |
| CN1CC[C@H](c2c(O)cc(O)c3c(=O)cc(-c4ccccc4Cl)oc23)[C@H](O)C1 [Alvocidib (Flavopiridol)] | 0.217 µM | 0.363 µM |  | 0.388 µM | 0.316 µM | 0.187 µM | 0.515 µM | 0.174 µM | 0.184 µM | 0.408 µM | > 10 µM | 19.8 | 16.9 | 1.69 | 14.1 | 4.64 | 13.6 | 9.86 | 16.8 | 7.73 | 7.14 | 0 | 7.64 | 10.1 | 10.4 | 9.96 | 0.477 µM | 0.355 µM | 0.251 µM | 0.246 µM |
| NCCCNCCSP(=O)(O)O [Amifostine] | > 10 µM | > 10 µM | > 10 µM | > 10 µM | > 10 µM | > 10 µM | > 10 µM | > 10 µM | > 10 µM | > 10 µM | > 10 µM | 0 | 0 | 0 | 0 | 0 | 0 | 0 | 0 | 0 | 0 | 0 | 0 | 0 | 0 | 0 | > 10 µM | > 10 µM | > 10 µM | > 10 µM |
| Cn1c(CCCC(=O)O)nc2cc(N(CCCl)CCCl)ccc21 [Bendamustine (hydrochloride hydrate)] | > 10 µM | > 10 µM | > 10 µM | > 10 µM | > 10 µM |  | > 10 µM | > 10 µM | > 10 µM | > 10 µM | > 10 µM | 0 | 0 | 0 | 0 | 0 | 0.159 | 0 | 0 | 0 | 0 | 0 | 0 | 0 | 0 | 0 | > 10 µM | > 10 µM | > 10 µM | > 10 µM |
